Positions count from the first letter of the chain named.
Tests used:
wild-type cPAH = biological target: T1, wild-type cPAH (Chromobacterium violaceum, UniProt P30967); details: cited from earlier work
T1 sequence (P30967 1-297): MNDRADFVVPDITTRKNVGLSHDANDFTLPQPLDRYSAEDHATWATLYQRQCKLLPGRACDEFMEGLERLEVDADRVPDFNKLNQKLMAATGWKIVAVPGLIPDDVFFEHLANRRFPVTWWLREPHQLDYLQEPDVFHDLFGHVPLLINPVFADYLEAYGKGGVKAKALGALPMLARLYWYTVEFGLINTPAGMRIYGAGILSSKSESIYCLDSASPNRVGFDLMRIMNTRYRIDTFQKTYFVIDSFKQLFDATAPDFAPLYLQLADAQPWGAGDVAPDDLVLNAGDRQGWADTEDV

cPAH D139N [1] = biological target: T2, cPAH D139N (Chromobacterium violaceum, UniProt P30967, D139N); assay: Steady-state kinetics of phenylalanine hydroxylation; assay type: biochemical
T2 sequence (P30967 1-297 D139N): T1 sequence (P30967 1-297) with D139N

cPAH D139K = biological target: T3, cPAH D139K (Chromobacterium violaceum, UniProt P30967, D139K); assay: ITC, L-Phe binding to iron-reconstituted enzyme with excess BH4
T3 sequence (P30967 1-297 D139K): T1 sequence (P30967 1-297) with D139K

cPAH D139N [2] = biological target: T2, cPAH D139N; assay: as above
cPAH D139A [3] = biological target: T4, cPAH D139A (Chromobacterium violaceum, UniProt P30967, D139A); assay: Steady-state kinetics of phenylalanine hydroxylation; assay type: biochemical
T4 sequence (P30967 1-297 D139A): T1 sequence (P30967 1-297) with D139A

cPAH D139E [4] = biological target: T5, cPAH D139E (Chromobacterium violaceum, UniProt P30967, D139E); assay: ITC, L-Phe binding to iron-reconstituted enzyme with excess BH4
T5 sequence (P30967 1-297 D139E): T1 sequence (P30967 1-297) with D139E

cPAH D139A [5] = biological target: T4, cPAH D139A; assay: as above
cPAH D139E [6] = biological target: T5, cPAH D139E; assay: Steady-state kinetics of phenylalanine hydroxylation; assay type: biochemical
[7] = D139K, 1 mM Phe into 50 μM protein, 50 μM FeSO4, 200 μM BH4, anaerobic, 25 °C
[8] = D139N, 1 mM Phe into 50 μM protein, 50 μM FeSO4, 200 μM BH4, anaerobic, 25 °C
[9] = D139E, 1 mM Phe into 50 μM protein, 50 μM FeSO4, 200 μM BH4, anaerobic, 25 °C
[10] = D139A, 1 mM Phe into 50 μM protein, 50 μM FeSO4, 200 μM BH4, anaerobic, 25 °C

In the case of N[C@@H](Cc1ccccc1)C(=O)O [L-Phe, phenylalanine], the Kd (wild-type cPAH) is given as 37 ± 0.3 µM, the “N (ITC stoichiometry)” value (wild-type cPAH) is given as 0.8 and the ΔH (wild-type cPAH) is given as “–7.9 ± 0.8 kcal mol^–1”. The ΔS (wild-type cPAH) was “–6 cal mol^–1”, the “fold decrease in kcat/KM for phenylalanine vs wild type” value (“fold decrease in kcat/KM” below) (cPAH D139N [1]) was 17 fold and the Kd (cPAH D139K) was 31 ± 5 µM. The “N (ITC stoichiometry)” value (cPAH D139K; [7]) was 0.8, the ΔH (cPAH D139K; [7]) was “–9.4 ± 1.3 kcal mol^–1” and the ΔS (cPAH D139K; [7]) was “–11 cal mol^–1”. For the same compound, the Kd (cPAH D139N [2]) was 37 ± 3.7 µM, the “N (ITC stoichiometry)” value (cPAH D139N [2]; [8]) was 0.9 and the ΔH (cPAH D139N [2]; [8]) was “–8.5 ± 0.7 kcal mol^–1”. The ΔS (cPAH D139N [2]; [8]) was “–8 cal mol^–1”, the “fold decrease in kcat/KM” value (cPAH D139A [3]) was 81 fold and the Kd (cPAH D139E [4]) was 55 ± 18 µM. For the same compound, the “N (ITC stoichiometry)” value (cPAH D139E [4]; [9]) was 0.6, the ΔH (cPAH D139E [4]; [9]) was “–13.2 ± 6.0 kcal mol^–1” and the ΔS (cPAH D139E [4]; [9]) was “–25 cal mol^–1”. The Kd (cPAH D139A [5]) was 39 ± 12 µM, the “N (ITC stoichiometry)” value (cPAH D139A [5]; [10]) was 1 and the ΔH (cPAH D139A [5]; [10]) was “–10.5 ± 1.9 kcal mol^–1”. For the same compound, the ΔS (cPAH D139A [5]; [10]) was “–15 cal mol^–1” and the “fold decrease in kcat/KM” value (cPAH D139E [6]) was 7 fold.
